Assays:
Conditions in all cases: 72 h
MDA-MB-468 [1] = tested on: MDA-MB-468
Experimental: (§1)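 Drug sensitivity and resistance testing (DSRT) of breast cancer cell lines in 384-well plates, 5 concentrations in 10-fold dilutions over a compound-specific 10,000-fold range. After 72 h, cytotoxicity was read by CellTox Green fluorescence and viability by CellTiter-Glo luminescence (multiplexed), normalised to DMSO and benzethonium chloride controls. EC50 is the inflection point of the fitted dose-response curve (bottom asymptote free, so it can be relative for partial curves) and is censored at the highest tested concentration. Rows with DSS 0 (no meaningful response) were excluded.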

Hs578T [2] = tested on: Hs578T
In short: (§2)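 Rows with a drug sensitivity score of zero were dropped, and EC50 was taken from the fitted percent-inhibition dose-response curve, censored at the highest concentration. Data were normalised on each plate to vehicle and a positive kill control and checked by Z'-factor. The assay seeded breast cancer cell lines in 20 µl onto 384-well plates pre-loaded with compound in 5 µl medium for 72 h, then added 2.5 µl CellTiter-Blue for 2 h at 37 °C and read fluorescence at 560/590 nm.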

MDA-MB-231 = tested on: MDA-MB-231
In short: as §2

CAL-120 [3] = tested on: CAL-120
In short: as §2

HCC1937 [4] = tested on: HCC1937
In short: as §2

MDA-MB-468 [5] = tested on: MDA-MB-468; remark: listed apart in the source
In short: as §2

HCC1143 = tested on: HCC1143
In short: as §2

SK-BR-3 = tested on: SK-BR-3
In short: as §2

BT-549 = tested on: BT-549
In short: as §2

MFM-223 [6] = tested on: MFM-223
In short: as §2

MDA-MB-436 [7] = tested on: MDA-MB-436
In short: as §2

BT-474 [8] = tested on: BT-474
In short: as §2

HCC1599 = tested on: HCC1599
In short: as §2

MFM-223 [9] = tested on: MFM-223; remark: listed apart in the source
Experimental: as §1

Hs578T [10] = tested on: Hs578T; remark: listed apart in the source
Experimental: as §1

CAL-85-1 = tested on: CAL-85-1
Experimental: as §1

DU-4475 = tested on: DU-4475
Experimental: as §1

HCC1937 [11] = tested on: HCC1937; remark: listed apart in the source
Experimental: as §1

CAL-148 [12] = tested on: CAL-148
Experimental: as §1

BT-474 [13] = tested on: BT-474; remark: listed apart in the source
Experimental: as §1

CAL-148 [14] = tested on: CAL-148; remark: listed apart in the source
In short: as §2

MDA-MB-436 [15] = tested on: MDA-MB-436; remark: listed apart in the source
Experimental: as §1

CAL-120 [16] = tested on: CAL-120; remark: listed apart in the source
Experimental: as §1

MCF-10A = tested on: MCF-10A
Experimental: as §1

Structure (SMILES)	EC50, CellTiter-Blue viability (MDA-MB-231)	EC50, CellTiter-Blue viability (HCC1937 [4])	EC50, CellTiter-Blue viability (MDA-MB-468 [5])	EC50, CellTiter-Blue viability (HCC1143)	EC50, CellTiter-Blue viability (SK-BR-3)	EC50, CellTiter-Blue viability (BT-549)	EC50, CellTiter-Blue viability (MDA-MB-436 [7])	EC50, CellTiter-Blue viability (BT-474 [8])	EC50, CellTiter-Blue viability (HCC1599)	EC50, CellTox Green (MDA-MB-468 [1])	EC50, CellTiter-Blue viability (Hs578T [2])	EC50, CellTiter-Blue viability (CAL-120 [3])	EC50, CellTiter-Blue viability (MFM-223 [6])	EC50, CellTox Green (MFM-223 [9])	EC50, CellTox Green (Hs578T [10])	EC50, CellTox Green (CAL-85-1)	EC50, CellTox Green (CAL-148 [12])	EC50, CellTiter-Blue viability (CAL-148 [14])	other results
CCn1c(-c2nonc2N)nc2cnc(Oc3cccc(NC(=O)c4ccc(OCCN5CCOCC5)cc4)c3)cc21	–	–	–	–	–	–	–	–	–	> 10000 nM	–	–	–	–	–	–	–	–	–
COc1cc(O)c2c(c1)/C=C/C[C@H](O)[C@H](O)C(=O)/C=C\C[C@H](C)OC2=O [(5Z)-7-Oxozeaenol]	–	–	–	–	–	–	–	–	–	–	–	–	–	277 nM	253 nM	66.5 nM	75.8 nM	–	EC50, CellTox Green (DU-4475): 759 nM; EC50, CellTox Green (HCC1937 [11]): 305 nM; EC50, CellTox Green (BT-474 [13]): 4930 nM
CNC(=O)c1cccc(-c2ccc3c(N4CCOC[C@@H]4C)nc(N4CCOC[C@@H]4C)nc3n2)c1 [AZD2014]	–	–	–	–	–	–	–	–	–	–	–	–	–	> 10000 nM	–	–	130 nM	–	–
CN(C)c1nc(N(C)C)nc(N(C)C)n1 [Altretamine]	–	–	–	–	–	–	–	–	2950 nM	–	–	–	–	–	–	–	–	–	–
O=C(/C=C/c1cccc(S(=O)(=O)Nc2ccccc2)c1)NO [Belinostat]	684 nM	578 nM	1940 nM	971 nM	200 nM	1890 nM	553 nM	889 nM	348 nM	3690 nM	1890 nM	204 nM	605 nM	745 nM	1260 nM	1010 nM	1070 nM	322 nM	EC50, CellTox Green (CAL-120 [16]): 1410 nM; EC50, CellTox Green (MCF-10A): 30.4 nM; EC50, CellTox Green (DU-4475): 519 nM; EC50, CellTox Green (BT-474 [13]): 1600 nM
Nc1cc(C(F)(F)F)c(-c2cc(N3CCOCC3)nc(N3CCOCC3)n2)cn1 [Buparlisib]	–	–	–	–	–	–	–	–	–	–	–	–	–	–	5580 nM	–	–	–	EC50, CellTox Green (MCF-10A): 8430 nM; EC50, CellTox Green (BT-474 [13]): 5170 nM
CCOC(=O)CCNc1cc(N2CCc3ccccc3CC2)nc(-c2ccccn2)n1 [GSK-J4]	–	–	–	–	–	–	–	–	–	8140 nM	–	–	–	17400 nM	2280 nM	4080 nM	10900 nM	–	EC50, CellTox Green (CAL-120 [16]): 20000 nM; EC50, CellTox Green (MCF-10A): 18100 nM; EC50, CellTox Green (DU-4475): 5920 nM; EC50, CellTox Green (HCC1937 [11]): 24100 nM; EC50, CellTox Green (MDA-MB-436 [15]): 21200 nM; EC50, CellTox Green (BT-474 [13]): 2590 nM
Cc1cc(Nc2cc(CN3CCOCC3)c3nc(C)c(Cc4ccc(Cl)cc4F)n3n2)n[nH]1 [Gandotinib]	–	–	–	–	–	–	–	–	–	4500 nM	–	–	–	–	2040 nM	6590 nM	–	–	EC50, CellTox Green (MDA-MB-436 [15]): 241 nM
O=C(Nc1ccncc1)C(=O)c1cn(Cc2ccc(Cl)cc2)c2ccccc12 [Indibulin]	87.2 nM	18.1 nM	61.8 nM	46.9 nM	26.1 nM	135 nM	64.5 nM	31.3 nM	–	1640 nM	938 nM	22.4 nM	377 nM	395 nM	3450 nM	858 nM	–	5000 nM	–
NC(=O)c1ccc(I)c([N+](=O)[O-])c1 [Iniparib]	–	–	–	–	–	–	–	–	–	–	–	3290 nM	–	–	–	–	–	–	EC50, CellTox Green (CAL-120 [16]): > 10000 nM

Second part, led by results:

EC50, CellTiter-Blue viability (MDA-MB-231)	EC50, CellTiter-Blue viability (HCC1937 [4])	EC50, CellTiter-Blue viability (MDA-MB-468 [5])	EC50, CellTiter-Blue viability (HCC1143)	EC50, CellTiter-Blue viability (SK-BR-3)	EC50, CellTiter-Blue viability (BT-549)	EC50, CellTiter-Blue viability (MDA-MB-436 [7])	EC50, CellTiter-Blue viability (BT-474 [8])	EC50, CellTiter-Blue viability (HCC1599)	Structure (SMILES)	EC50, CellTox Green (MDA-MB-468 [1])	EC50, CellTiter-Blue viability (Hs578T [2])	EC50, CellTiter-Blue viability (CAL-120 [3])	EC50, CellTiter-Blue viability (MFM-223 [6])	EC50, CellTox Green (MFM-223 [9])	EC50, CellTox Green (Hs578T [10])	EC50, CellTox Green (CAL-85-1)	EC50, CellTox Green (CAL-148 [12])	EC50, CellTiter-Blue viability (CAL-148 [14])	other results
1750 nM	3820 nM	1150 nM	121 nM	3180 nM	2370 nM	1080 nM	2920 nM	–	Cc1cc(Nc2cc(CN3CCOCC3)c3nc(C)c(Cc4ccc(Cl)cc4F)n3n2)n[nH]1	–	2080 nM	877 nM	83.5 nM	–	–	–	–	–	–
2870 nM	619 nM	6910 nM	–	6100 nM	5190 nM	1390 nM	–	1350 nM	N#Cc1ccc(COC[C@H]2O[C@@H](n3c(NCc4ccc(Cl)c(Cl)c4)nc4c(N)ncnc43)[C@H](O)[C@@H]2O)cc1	–	–	–	–	1000 nM	–	–	–	–	–
8030 nM	–	–	–	1050 nM	–	–	–	–	COc1cc(OC2CCN(C)CC2)ccc1Nc1ncc2c(n1)n(C1CCCC1)c(=O)n2C [AZ 3146]	–	–	> 10000 nM	–	–	–	–	–	1990 nM	EC50, CellTox Green (MDA-MB-436 [15]): > 10000 nM
1910 nM	2090 nM	2330 nM	2350 nM	257 nM	1570 nM	4190 nM	1180 nM	517 nM	Nc1cc(C(F)(F)F)c(-c2cc(N3CCOCC3)nc(N3CCOCC3)n2)cn1 [BKM-120]	–	3010 nM	887 nM	1360 nM	–	–	–	–	1710 nM	–
> 10000 nM	–	808 nM	–	1580 nM	–	–	1000 nM	775 nM	COc1cc2ncnc(Nc3ccc(F)c(Cl)c3)c2cc1OCCCN1CCOCC1 [Gefitinib]	–	1060 nM	> 10000 nM	–	–	–	2900 nM	> 10000 nM	1440 nM	–
8350 nM	961 nM	1430 nM	2350 nM	3740 nM	4110 nM	1010 nM	–	692 nM	CCc1c2c(nc3ccc(OC(=O)N4CCC(N5CCCCC5)CC4)cc13)-c1cc3c(c(=O)n1C2)COC(=O)[C@]3(O)CC [Irinotecan]	–	–	1110 nM	9110 nM	–	> 10000 nM	–	304 nM	1170 nM	EC50, CellTox Green (CAL-120 [16]): 5530 nM

Source: the supplement of paper PMC4862054
